Laboratory results as given in patent US11492359B2, “Near-infrared nerve-sparing fluorophores” (OREGON HEALTH & SCIENCE UNIVERSITY, priority 2018, dated 2022).

How the values were obtained:
[1] = UV-Vis absorption and fluorescence spectroscopy of the Oxazine library; assay type: physicochemical; settings: for Extinction coefficient: Beer's Law plots; for Quantum yield: relative, references Oxazine 1, Oxazine 170, Rhodamine 101
In short: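 Absorbance measured at room temperature in 1-cm quartz cuvette, reference corrected; extinction coefficient from Beer's Law plots of absorbance vs concentration. Fluorescence spectra corrected for PMT response; relative quantum yields averaged over multiple measurements against Oxazine 1, Oxazine 170 and Rhodamine 101 references.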

[2] = tested on: murine brachial plexus and sciatic nerves; test: Nerve-specificity screening using systemic administration; assay type: in vivo; settings: for nerve specificity / nerve contrast (N/M vs control group) following systemic administration: IV, 200 nmol, 4 hours prior to imaging; for N/M and N/A ratios vs unstained control animals: systemic administration
[3] = tested on: murine brachial plexus and sciatic nerves; test: Nerve-specificity screening using direct/topical administration; assay type: in vivo, mouse; settings: for nerve specificity (N/M contrast vs control group) via direct administration: 125 μM, imaged 30 minutes after staining; for N/M and N/A ratios vs unstained control animals: direct administration
Experimental: All reagents were purchased from Sigma Aldrich, Fisher Scientific, TCI, or Ark Pharm. Unless otherwise indicated, all commercially available starting materials were used directly without further purification. Analytical thin layer chromatography (TLC) was performed on Millipore ready-to-use plates with silica gel 60 (F254, 32-63 μm). Flash chromatography was performed on Sorbent Technologies silica gel for column chromatography or on a Biotage Isolera Flash System using SNAP Ultra cartridges. High-resolution mass spectra (HRMS) were measured on a ThermoElectron LTQ-Orbitrap high resolution mass spectrometer with a dedicated Accela HPLC system, or an Agilent 6244 time-of-flight LCMS with diode array detector VL+. LCMS and Purity Characterization Mass-to-charge ratio and purity of the Oxazine compounds were characterized on an Agilent 6244 time-of-flight tandem liquid chromatography mass spectroscopy (LCMS) with diode array detector VL+. Sample (10 μL) was injected into a C18 column (Poroshell 120, 4.6×50 mm, 2.7 micron), and eluted with a solvent system of A (H2O, 0.1% FA) and B (MeCN, 01.% FA) at 0.4 mL/min, from A/B=90/10 to 5/95 over 10 min, maintained at A/B=5/95 for additional 5 min. Ions were detected in positive ion mode by setting the capillary voltage at 4 kV and gas temperature at 350° C. Purity was calculated through area under the curve analysis of the absorbance at 254 nm. UV-Vis Absorption and Fluorescence Spectroscopy. UV-Vis spectra were collected with a Cary 50 UV-Vis spectrophotometer at room temperature, using a 1-cm quartz cuvette. Fluorescence spectra were collected on a Cary Eclipse fluorescence spectrophotometer (Agilent Technologies). All absorbance spectra were reference corrected. Extinction coefficient was calculated from Beer's Law plots of absorbance versus concentration. Fluorescence spectra were corrected for the wavelength dependent response of the R928 photomultiplier tube using a manufacturer generated correction file. Relative quantum yields are reported as the average of multiple measurements using multiple references, including Oxazine 1, Oxazine 170, and Rhodamine 101. Physicochemical Property Calculation. Physicochemical partition coefficients (Log D) values at pH 7.4, number of hydrogen bond donors and acceptors, polar surface area, and the number of rotatable bonds were calculated using Marvin and JChem calculator plugins (ChemAxon, Budapest, Hungary). Nerve-Specificity Screening using Direct/Topical Administration Each compound was screened for its tissue-specificity using a previously published direct/topical administration strategy in murine brachial plexus and sciatic nerves.^1 Each compound from the Oxazine library was formulated in the previously utilized co-solvent formulation (10% DMSO, 5% Kolliphor, 65% serum and 20% phosphate buffered saline) at 125 μM. 100 μL of the formulated Oxazine were incubated on the exposed brachial plexus or sciatic nerve for 5 minutes. The fluorophore containing solution was removed and the area was irrigated with saline 18 times to remove any unbound fluorophore. Co-registered fluorescence and color images were collected of each stained area 30 minutes after Oxazine direct/topical administration using a custom built macroscopic imaging system with 620/60 nm excitation and 700/75 nm bandpass emission filters. Custom written MatLab code was used to analyze the tissue specific fluorescence where regions of interest were selected on the nerve, muscle and adipose tissue using the white light images. These regions of interest were then analyzed on the co-registered matched fluorescence images permitting assessment of the nerve to muscle and nerve to adipose ratios in blinded manner. […]

## CC/N=c1/cc2oc3cc4c(cc3nc-2cc1C)C(C)=CC(C)(C)N4CC [LGW03-57, (Z)—N-(1-ethyl-2,2,4,8-tetramethyl-1,2-dihydro-9H-pyrido[3,2-b]phenoxazin-9-ylidene)ethanaminium]
[1]
  Max Abs: 661 nm
  Max Em: 680 nm
  Max Ex: 665 nm
  Extinction coefficient: 54072 M⁻¹ cm⁻¹
  Quantum yield: 18.17%
[2]
  nerve specificity / nerve contrast (N/M vs control group) following systemic administration: negative for nerve contrast
[3]
  nerve specificity (N/M contrast vs control group) via direct administration: positive nerve specificity

## CC[N+](CC)=c1ccc2nc3ccc(N(C)C)cc3oc-2c1 [LGW03-76, N-(7-(dimethylamino)-3H-phenoxazin-3-ylidene)-N-ethylethanaminium]
[1]
  Max Abs: 654 nm
  Max Em: 669 nm
  Max Ex: 655 nm
  Extinction coefficient: 66111 M⁻¹ cm⁻¹
  Quantum yield: 7.99%
[2]
  nerve specificity / nerve contrast (N/M vs control group) following systemic administration: high nerve specificity
  N/M and N/A ratios vs unstained control animals: significantly higher N/M and N/A ratios than unstained control animals
[3]
  nerve specificity (N/M contrast vs control group) via direct administration: high nerve specificity
  N/M and N/A ratios vs unstained control animals: significantly higher N/M and N/A ratios than unstained control animals

## CCCNc1cc2oc3cc(=[N+](CC)CC)ccc-3nc2cc1C [LGW04-31, N-ethyl-N-(8-methyl-7-(propylamino)-3H-phenoxazin-3-ylidene)ethanaminium]
[1]
  Max Abs: 641 nm
  Max Em: 661 nm
  Max Ex: 640 nm
  Extinction coefficient: 59586 M⁻¹ cm⁻¹
  Quantum yield: 5.01%
[2]
  nerve specificity / nerve contrast (N/M vs control group) following systemic administration: high nerve specificity
  N/M and N/A ratios vs unstained control animals: significantly higher N/M and N/A ratios than unstained control animals
[3]
  nerve specificity (N/M contrast vs control group) via direct administration: high nerve specificity
  N/M and N/A ratios vs unstained control animals: significantly higher N/M and N/A ratios than unstained control animals

## CCN1CCc2cc3nc4ccc(=[N+](CC)CC)cc-4oc3cc21 [LGW05-84, N-ethyl-N-(1-ethyl-2,3-dihydropyrrolo[3,2-b]phenoxazin-8(1H)-ylidene)ethanaminium]
[1]
  Max Abs: 643 nm
  Max Em: 675 nm
  Max Ex: 650 nm
  Extinction coefficient: 46048 M⁻¹ cm⁻¹
  Quantum yield: 4.85%
[2]
  nerve specificity / nerve contrast (N/M vs control group) following systemic administration: positive
[3]
  nerve specificity (N/M contrast vs control group) via direct administration: negative nerve specificity

## CC/N=c1/cc2oc3cc4c(cc3nc-2cc1C)CCN4 [LGW05-85, (Z)—N-(7-methyl-2,3-dihydropyrrolo[3,2-b]phenoxazin-8(1H)-ylidene)ethanaminium]
[1]
  Max Abs: 613 nm
  Max Em: 640 nm
  Max Ex: 615 nm
  Extinction coefficient: 45382 M⁻¹ cm⁻¹
  Quantum yield: 41.05%
[2]
  nerve specificity / nerve contrast (N/M vs control group) following systemic administration: negative for nerve contrast
[3]
  nerve specificity (N/M contrast vs control group) via direct administration: positive nerve specificity

## CC/N=c1/cc2oc3cc(NCC)c(F)cc3nc-2cc1F [LGW05-91, (Z)—N-(7-(ethylamino)-2,8-difluoro-3H-phenoxazin-3-ylidene)ethanaminium]
[1]
  Max Abs: 606 nm
  Max Em: 626 nm
  Max Ex: 610 nm
  Extinction coefficient: 16763 M⁻¹ cm⁻¹
  Quantum yield: 33.45%
[2]
  nerve specificity / nerve contrast (N/M vs control group) following systemic administration: negative for nerve contrast
[3]
  nerve specificity (N/M contrast vs control group) via direct administration: positive nerve specificity

## CC/N=c1/cc2oc3cc(N)c(C)cc3nc-2cc1C [LGW06-10, (Z)—N-(7-amino-2,8-dimethyl-3H-phenoxazin-3-ylidene)ethanaminium]
[1]
  Max Abs: 602 nm
  Max Em: 621 nm
  Max Ex: 605 nm
  Extinction coefficient: 55807 M⁻¹ cm⁻¹
  Quantum yield: 26.54%
[2]
  nerve specificity / nerve contrast (N/M vs control group) following systemic administration: negative for nerve contrast
[3]
  nerve specificity (N/M contrast vs control group) via direct administration: positive nerve specificity

## CC[N+](CC)=c1ccc2nc3cc(C)c(N)cc3oc-2c1 [LGW06-11, N-(7-amino-8-methyl-3H-phenoxazin-3-ylidene)-N-ethylethanaminium]
[1]
  Max Abs: 628 nm
  Max Em: 650 nm
  Max Ex: 625 nm
  Extinction coefficient: 31843 M⁻¹ cm⁻¹
  Quantum yield: 2.52%
[2]
  nerve specificity / nerve contrast (N/M vs control group) following systemic administration: negative for nerve contrast
[3]
  nerve specificity (N/M contrast vs control group) via direct administration: positive nerve specificity

## CC/N=c1/cc2oc3cc(N)ccc3nc-2cc1C [LGW06-97, (Z)—N-(7-amino-2-methyl-3H-phenoxazin-3-ylidene)ethanaminium]
[1]
  Max Abs: 599 nm
  Max Em: 617 nm
  Max Ex: 600 nm
  Extinction coefficient: 38616 M⁻¹ cm⁻¹
  Quantum yield: 25.39%
[2]
  nerve specificity / nerve contrast (N/M vs control group) following systemic administration: negative for nerve contrast
[3]
  nerve specificity (N/M contrast vs control group) via direct administration: positive nerve specificity

## c1c2c(cc3c1N=c1cc4c(cc1O3)=NCC4)NCC2 [LGW07-55, 2,3,7,8-tetrahydro-1H-dipyrrolo[3,2-b:2′,3′-i]phenoxazin-9-ium]
[1]
  Max Abs: 619 nm
  Max Em: 634 nm
  Max Ex: 620 nm
  Extinction coefficient: 20163 M⁻¹ cm⁻¹
  Quantum yield: 28.25%
[2]
  nerve specificity / nerve contrast (N/M vs control group) following systemic administration: negative for nerve contrast
[3]
  nerve specificity (N/M contrast vs control group) via direct administration: positive nerve specificity
